{
  "source": "paper PMC4372538",
  "about": "“Advantages of the Phosphatidylserine-Recognizing Peptide PSP1 for Molecular Imaging of Tumor Apoptosis Compared with Annexin V” (PLoS ONE, 2015)",
  "key": {"apoptotic H460 cells": {"system": "apoptotic H460 cells", "test": "FACS binding to apoptotic H460 cells", "format": "cell-based, human", "conditions": "FITC-labeled, 10 μg/ml, vs PSP1, 4°C; n = 3", "experimental": "(§1) The human lung cancer cell H460, which was obtained from the American Type Culture Collection (ATCC), was maintained in RPMI-1640 media supplemented with 10% heat-inactivated fetal bovine serum (FBS) and penicillin G/streptomycin at 37°C in a humidified atmosphere of 95% air and 5% CO2.\n(§2) To induce apoptosis of lung tumor cells (H460), the cells (5×10^6 cell) were grown overnight and then treated with etoposide (50 μM) (Sigma) in serum-free media for 22 hrs, followed by washing with phosphate-buffered saline (PBS) and binding buffer (10 mM Hepes (pH 7.4), 150 mM NaCl, and 2 mM CaCl2).\n(§3) Control peptide (grey); FITC-NSSSVDK."}, "normal H460 cells": {"system": "normal H460 cells", "test": "FACS binding to normal H460 cells", "format": "cell-based, human", "conditions": "FITC-labeled, 10 μg/ml; n = 3", "experimental": "as §1, §2, §3"}, "H460 cells": {"system": "H460 cells", "test": "apoptosis induction in H460 cells, annexin V/PI staining", "conditions": "etoposide 50 μM"}, "[1]": {"system": "apoptotic tumor cells in H460 tumor-bearing mice", "test": "in vivo fluorescence imaging of tumors after apoptosis induction", "design": "species or system BALB/c nude mice; human H460 tumor", "experimental": "(§4) Female nude mice (BALB/c nude; body weight, 20±3 g; n = 5) were housed in a specific pathogen-free environment at 22±2°C and 55±5% relative humidity with light. Tumors were generated by subcutaneously injecting H460 cells (5×10^6 cells) into the right shoulder of 6-wk-old female BALB/c nude mice and allowing them to grow for 3 weeks (size of 0.5 to 0.7 cm). For in vivo analysis of tumor targeting, the tumor-bearing mice were either treated or not treated with a single dose of camptothecin (10 mg/kg) 24 hrs prior to intravenous injection of Cy7.5-labeled PSP1, Cy7.5-annexin V or Cy7.5-labeled control peptide into the tail vein under inhalational anesthesia (1% (w/v) isoflurane in 2 L oxygen).\nIn vivo fluorescence images were taken at different time intervals after peptide injection (10 min, 1 h, 3 h, 6 h, and 12 h) using an eXplore Optix system (ART Advanced Research Technologies Inc., Montreal, Canada), which has excitation/emission wavelengths of 778 nm/805 nm. The obtained images were processed using eXplore Optix OptiView Software and normalized based on the baseline fluorescence, assessed for each mouse prior to peptide injection.\nFig 4 In vivo imaging of tumors after apoptosis induction. (A) Cy7.5-labelled PSP1peptide, control peptide, or annexin V was systematically injected into the tail vein of tumor-bearing nude mice treated with camptothecin 24 hrs before injection. The same amount of annexin V was also injected into non-camptothecin-treated tumor-bearing mice as a control. The homing of the peptides was examined after the indicated times using an optical imaging system. The white dotted circles indicate the tumors. (B) Histological examination of tumor tissues after homing of PSP1 and annexin V, performed under a fluorescence microscope. Tumor cell apoptosis was observed by TUNEL staining."}, "[2]": {"system": "apoptotic cells in tumor tissue", "test": "histological examination of tumor tissues after in vivo homing", "design": "species or system BALB/c nude mice; human H460 tumor", "conditions": "Cy7.5-labeled, i.v., tumors removed at 6 hr, camptothecin-treated mice", "experimental": "At the 6 hr time point, the animals were euthanized with CO2, and tumor tissues were removed from a subset of animals. The tumor tissues were then fixed by incubating with 4% paraformaldehyde (PFA) overnight, followed by freezing for cryosectioning and immunohistochemical studies under a fluorescence microscope (Zeiss, Oberkochen, Germany). Apoptosis in the tumor tissues was assessed by […] terminal deoxynucleotidyl transferase-mediated dUTP nick-end labelling (TUNEL) staining in accordance with the manufacturer’s instructions (Chemicon Int., Temecula, CA, USA).  Fig 4 In vivo imaging of tumors after apoptosis induction. (A) Cy7.5-labelled PSP1peptide, control peptide, or annexin V was systematically injected into the tail vein of tumor-bearing nude mice treated with camptothecin 24 hrs before injection. The same amount of annexin V was also injected into non-camptothecin-treated tumor-bearing mice as a control. The homing of the peptides was examined after the indicated times using an optical imaging system. The white dotted circles indicate the tumors. (B) Histological examination of tumor tissues after homing of PSP1 and annexin V, performed under a fluorescence microscope. Tumor cell apoptosis was observed by TUNEL staining."}, "H460 tumors": {"system": "H460 tumors", "test": "TUNEL staining of tumors", "format": "in vivo, BALB/c nude mice; human H460 tumor", "conditions": "camptothecin 10 mg/kg single dose", "experimental": "as §4\nAt the 6 hr time point, the animals were euthanized with CO2, and tumor tissues were removed from a subset of animals. The tumor tissues were then fixed by incubating with 4% paraformaldehyde (PFA) overnight, followed by freezing for cryosectioning and immunohistochemical studies under a fluorescence microscope (Zeiss, Oberkochen, Germany). Apoptosis in the tumor tissues was assessed by […] terminal deoxynucleotidyl transferase-mediated dUTP nick-end labelling (TUNEL) staining in accordance with the manufacturer’s instructions (Chemicon Int., Temecula, CA, USA)."}},
  "note": "“Also recorded” adds a separate entry of the source. Where no end group is shown, it is not given here.",
  "data": [
    {"compound": "CLSAAPSYC [AA-PSP1, mutant PSP1 peptide with alanine instead of tyrosine, …]", "values": [
      {"measurement": "binding of PSP1 mutants to apoptotic H460 cells (FACS)", "setting": "apoptotic H460 cells", "result": "significantly diminished by replacement of tyrosine by alanine"}
    ]},
    {"compound": "CLSFFPSYC [FF-PSP1, mutant PSP1 peptide with phenylalanine instead of tyrosine, …]", "values": [
      {"measurement": "binding of PSP1 mutants to apoptotic H460 cells (FACS)", "setting": "apoptotic H460 cells", "result": "bound to the apoptotic cells as much as PSP1"},
      {"measurement": "binding to normal H460 cells (FACS)", "setting": "normal H460 cells", "result": "nonspecific binding to the normal cells"}
    ]},
    {"compound": "COc1cc([C@@H]2c3cc4c(cc3[C@@H](O[C@@H]3O[C@@H]5CO[C@@H](C)O[C@H]5[C@H](O)[C@H]3O)[C@H]3COC(=O)[C@H]23)OCO4)cc(OC)c1O", "note": "[etoposide]", "values": [
      {"measurement": "effect of etoposide on H460 cells in words", "setting": "H460 cells", "result": "without evidence of significant necrosis; also recorded: caused PS exposure; also recorded: did not significantly change the cell shape or number"},
      {"measurement": "H460 cells undergoing apoptosis", "setting": "H460 cells; 22 hrs, serum-free media, annexin V/PI FACS", "result": "more than 50%"}
    ]},
    {"compound": "NSSSVDK (also: FITC label, position not given here) [control peptide, control peptide (NSSSVDK), reference compound]", "values": [
      {"measurement": "non-specific fluorescence in surrounding non-tumor tissues", "setting": "[1]; Cy7.5-labeled control peptide 100 μg/200 μl i.v., camptothecin-treated tumor-bearing mice", "result": "surrounding non-tumor tissues absorbed fluorescence at the early time points, this non-specific signal vanished over time"},
      {"measurement": "in vivo tumor homing", "setting": "[1]; Cy7.5-labeled, i.v., camptothecin-treated H460 tumor-bearing mice, n = 5, imaging 10 min to 12 h, PSP1 10 μg/200 μl, annexin V and control peptide 100 μg/200 μl", "result": "did not show specific tumor-homing signals"},
      {"measurement": "tumor-homing fluorescence signal in tumor cryosections", "setting": "[2]", "result": "No signals were observed in tumor tissues"}
    ]},
    {"compound": "CC[C@@]1(O)C(=O)OCc2c1cc1n(c2=O)Cc2cc3ccccc3nc2-1", "note": "[camptothecin]", "values": [
      {"measurement": "in vivo apoptosis in tumors (TUNEL)", "setting": "H460 tumors", "result": "increased area of in vivo apoptosis"}
    ]}
  ]
}
